Data set [1] has as its system CD8 lymphocytes. Description: β-chemokine levels (ELISA) in cultures of purified activated CD8 lymphocytes. Particulars: 48 h. In kind it is cell-based, human.
For the next data set, the system named is HIV. Kind of data set: Cyclic therapy trial with HU during off-ARV periods: viral load. In kind it is in vivo. Particulars: for Viral load: 7 days on ARV's alternated by 14 days off ARV's but on HU. The source says:
(§1) The protocol used in the present invention expands on the NIH's concept of Cyclic Therapy. Cyclic therapy is a strategy in which patients can maintain viral suppression despite alternating between 7 days of taking ARV medications and 7 days of taking no medications. Compared to the NIH trail of short cycle of 7 days intermittently off therapy, in our trial, the G1 cycle agent HU is being used to maintain viral suppression during an extended off medication cycle of 14-28 days. The off period is followed by 7 days of combination antiretroviral therapy. This has allowed study participants to be on ⅔ fewer medications but still maintain viral control and immune reconstitution.
(§2) Four patients are enrolled in the trial. Patients in this study have benefited from decreased drug related toxicities, relief from difficult financial sacrifices to stay on ARV's, and improved adherence to medications.

The subject of data set [2] is CD8 lymphocytes. In kind it is cell-based, human. Particulars: HU 100 and 200 μM. As for the experimental part:
(§3) Cell proliferation was measured by the trypan blue staining viability test, [^3H]thymidine incorporation in DNA, and the 3-(4,5-dimethylthiazol-2-yl)-2,5-diphenyl tetrazolium bromide (MTT) assay (Roche).
The impact of cell cycle arrest in β-chemokine levels was evaluated by measuring chemokine levels in supernatants of cell cultures containing compounds known to cause cell cycle arrest. Levels of the β-chemokines RANTES, MIP-1α, and MIP-1β were measured by using commercial ELISA kits (R &D Systems). Cell cycle arrest in G1 was induced by culturing of the cells in the presence of aphidicolin (APH), sodium butyrate (SB), hydroxyurea (HU), roscovitine (RC), or olomoucine (OL). Arrest in late S phase was induced by culture of cells in the presence of resveratrol. G2 cycle arrest was induced by the compounds nocodazole and Colcemid. All compounds were purchased from Sigma except RC and OL, which were from Calbiochem. Arrest of cell cycle progression in the presence of G1 cytostatic agents was measured by propidium iodide staining followed by fluorescence-activated cell sorter (FACS) analysis (Noguchi, et al., 1991). This method may be used to test any compound for ability to arrest the G1 phase in a cell cycle.
In the experiments described thus far, total PBMCs had been used. […] Negatively selected CD8^+ lymphocytes were activated by anti-CD3 plus IL-2 treatment for 3 days. Activated cells were cultured in the presence of IL-2 and HU (100 and 200 μM) for 24 or 48 h, time points at which cell proliferation and supernatant chemokine levels were assayed. Cell proliferation was determined by trypan blue staining, [^3H]thymidine incorporation in DNA, and percentage of cells in S phase as assessed by propidium iodide staining (FIG. 4). […] Similarly, the percentage of cells in S phase increased in the absence of HU, whereas it decreased in its presence. […]
To investigate whether increased levels of supernatant chemokines upon cell cycle arrest are cell cycle phase-specific, the effect of G2 arrest in chemokine production next was evaluated. […]

The subject of the next data set is CD4. Description: Cyclic therapy trial with HU during off-ARV periods: absolute CD4 count. In kind it is in vivo, human. As to conditions: 7 days on ARV's alternated by 14 days off ARV's but on HU.
Source text: as §1, §2

Data set [3] relates to activated PBMCs. Kind of data set: β-chemokine levels (ELISA) in supernatants of activated PBMCs cultured with cell cycle arresting compounds. In kind it is cell-based, human.
In a further data set the test system is HIV-1 BaL. Kind of data set: HIV-1-suppressive activity of supernatants from HU-treated PBMCs, infected PBMCs, p24. In kind it is cell-based. Particulars: 100 μM HU in fresh medium, day 7 after infection.
The test system of data set [4] is activated PBMCs. Description: Cell number / proliferation of activated PBMCs (trypan blue). In kind it is cell-based, human. Particulars: PHA-activated PBMCs in presence of HU, trypan blue. On the procedure: as §3
To this end, β-chemokine levels (production or availability) by activated PBMCs cultured in the presence of HU was investigated. HU is a G1 cytostatic drug that, by depleting intracellular nucleotide pools, arrests cell cycle progression in late G1 (Lori, et al., 1994). […] In the representative experiment depicted in FIG. 2, day 8 chemokine levels in cultures containing 100 μM HU were increased 3.4-fold for RANTES, 5.4-fold for MIP-1α, and 4-fold for MIP-1β compared with the untreated control. Because HU inhibits lymphocyte proliferation, chemokine values also were expressed as chemokine amount per viable cell. As expected, cell numbers were lower in the presence of the drug (FIG. 2C).
The agents evaluated were SB, APH, RC, and OL. SB and APH arrest the cell cycle in early and late G1, respectively (Korin, et al., 1998; Koostra, et al., 2000). RC and OL are purine-derivative drugs that arrest cell cycle progression in late G1 through inhibition of cyclin-dependent kinases (CDKs) (Gray, et al., 1999). […] The number of viable cells and chemokine levels are depicted. […]

The subject of data set [5] is activated PBMCs. Description: β-chemokine levels in activated PBMCs cultured with Vitamin E. In kind it is cell-based, human. Particulars: day 6 after addition of Vitamin E, IL-2, FIG. 12. As for the experimental part: B-chemokines levels were measured in activated PBMCs cuftured in the presence of Vitamin E, an antioxidant reported to induce G1 cycle arrest. PBMCs from a healthy donor were activated under the presence of the indicated stimuli for 72 h. Activated cells were cultured in the presence of IL-2 and Vitamin E. Supernatants were evaluated for β-chemokine content on day 6 after addition of Vitamin E. Cell viability was measured by MTT assay.

The test system of a further data set is HIV-1. Description: HIV-1 production upon activation of patients' resting CD4 T cells (p24 ELISA). In kind it is cell-based. As to conditions: 5 μg/ml VE. As for the experimental part:
HIV-1 gene expression on latently infected resting T cells is dependent on host transcriptional factors, such as NF-κB, that are induced on activated cells. In the present study we have evaluated the in vitro effect of adding Vitamin E (VE) to cultures of patients' resting CD4 T cells under conditions of cellular activation that promote virus expression.
(§4) Blood (50 ml) was drawn from 10 patients on antiretroviral therapy, whose viral load were <400 copies/ml and whose CD4 counts were >300/μl. Resting CD4 T cells were purified by negative selection using antibody-labeled magnetic beads (Dynal, Lake Success, N.Y.). Purified cells were activated by co-culture with γ-irradiated PBMCs from normal donors in the presence of 1 μg/ml anti-CD3 antibody (Coulter, Miami, Fla.) and 100 units/ml rhIL-2 (Roche, Indianapolis, Ind.). Cultures were set up in the absence or continuous presence of 5 μg/ml of VE (Vitamin E succinate, Sigma, St. Louis, Mo.), with medium replenishment every 3 or 4 days. Cultures were maintained for 14 days. Virus production was monitored by measuring p24 antigen (NEN, Boston, Mass.) in the culture supernatants on days 7 and 14. Cell viability was measured by trypan blue staining.

Another data set concerns resting CD4 T cells. Description: Cell viability / proliferation of patients' CD4 T cell cultures (trypan blue). In kind it is cell-based, human. Particulars: 5 μg/ml VE, days 7 or 14; data not shown. On the procedure: as §4
The mark [6] stands for this setting: 100 μM HU, day 8, levels as ng/ml.

Consider two compounds from patent publication US20060099170A1, “Compositions for inducing increased levels of beta-chemokines and methods of use therefor” (priority 2002, published 2006).

Each structure is given as a SMILES string.

Protocol for HIV-1 BaL: The antiviral activity of the supernatants collected from cultures of PBMCs that had been exposed to 100 μM HU for 7 days [supernatants referred to as conditioned medium (CM)] was evaluated in PBMCs infected with HIV-1 BaL and HIV-1 IIIb. Briefly, PHA-activated PBMCs were infected with each virus at 100 tissue culture 50% infective dose units (TCID50)/10^6 PBMCs or 10 TCID50/10^6 PBMCs for 2 h at 37° C. Infected cells were cultured in IL-2 medium alone, IL-2 medium with 100 μM HU, IL-2 medium containing 50% supernatant from HU-treated PBMCs (CM/HU), or IL-2 medium containing 50% supernatant from control-treated PBMCs (CM/control). On day 3 after infection, culture medium was replaced with fresh medium of the same kind as on day 1. Viral growth (measured by p24 levels in the supernatant) and cell viability (assayed by MTT) were determined on day 7 after infection.
These culture supernatants were referred to as CM/HU. Culture supernatants from activated PBMCs cultured under the same conditions in the absence of HU (CM/control) also were harvested.
The antiviral activity of the CM was evaluated in the infection of PBMCs with HIV-1 BaL (a prototype R5-using virus) and HIV-1 IIIb (a prototype X4-using virus). […] Virus replication and cell viability were measured on day 7 after infection.

The compound `NC(=O)NO` [HU, hydroxyurea] had an MIP-1α level increase in the data set with CD8 lymphocytes [1] (100 μM HU) of 3.7 fold. The same compound gave an MIP-1β level increase in the data set on CD8 lymphocytes [1] (100 μM HU) of 4.7 fold. The compound further returned an RANTES level increase in the data set with CD8 lymphocytes [1] (100 μM HU) of 1.9 fold. Further, in the data set on CD8 lymphocytes [1] (200 μM HU, compared with 100 μM), the chemokine production levels entry is recorded as “Slightly lower increases”. The Viral load was determined as 72 Copies/ml in the data set on HIV (Patient 1, 6 wks); 158 Copies/ml with HIV (Patient 1, 9 wks); 114 Copies/ml in the data set on HIV (Patient 1, 12 wks); 973 Copies/ml with HIV (Patient 1, 18 wks); 0 Copies/ml in the data set on HIV (Patient 1, column head 3 wks off continuous therapy); 322 Copies/ml in the data set on HIV (Patient 1, column head 15 wks). Also, the Viral load in the data set with HIV (Patient 1, column head 21 wks) was 0 Copies/ml; in the data set with HIV (Patient 2, 3 wks) it was 0 c/ml; with HIV (Patient 2, 6 wks), 0 c/ml; with HIV (Patient 2, 9 wks), 0 c/ml; with HIV (Patient 2, 12 wks), 0 c/ml; in the data set on HIV (Patient 2, 18 wks) it was 0 c/ml. Besides, the Viral load in the data set with HIV (Patient 2, column head 15 wks) is reported as 0 c/ml; with HIV (Patient 3, 3 wks), 0 c/ml; in the data set with HIV (Patient 3, 6 wks), 0 c/ml; in the data set on HIV (Patient 3, 9 wks), 0 c/ml; in the data set on HIV (Patient 3, 12 wks), 0 c/ml. For the same compound, in the data set with HIV (all three patients, at least 3 cycles of treatment), the “viral suppression despite discontinuation of primary anti-retroviral drugs” value is “persistent viral suppression”. For the same compound, the “percentage of cells in S phase” value in the data set with CD8 lymphocytes [2] (propidium iodide) is given as “decreased”. The “cell number and thymidine incorporation between 24 and 48 h” value in the data set on CD8 lymphocytes [2] (doubled in absence of HU) is recorded as “remained constant or decreased”. Also, the “Absolute CD4 count” value in the data set with CD4 (Patient 1, 3 wks) is on record as 377; in the data set on CD4 (Patient 1, column head 21 wks), 518; with CD4 (Patient 2, 3 wks), 1256; in the data set on CD4 (Patient 2, 18 wks), 973; in the data set on CD4 (Patient 3, 3 wks), 934; in the data set on CD4 (Patient 3, 12 wks) it was 995. In the data set on activated PBMCs [3], the chemokine levels entry is “increased chemokine levels”. The “MIP-1α level increase compared with untreated control” value in the data set on activated PBMCs [3] (setting [6]) worked out at 5.4 fold. The “MIP-1β level increase compared with untreated control” value in the data set with activated PBMCs [3] (setting [6]) is on record as 4 fold. Further, in the data set with activated PBMCs [3] (setting [6]), the “RANTES level increase compared with untreated control” value is 3.4 fold. In addition, the “MIP-1α level increase, ng per 10^6 cells” value in the data set with activated PBMCs [3] (100 μM HU, per viable cell) worked out at 25.4 fold. Also, in the data set on activated PBMCs [3] (100 μM HU, per viable cell), the “MIP-1β level increase, ng per 10^6 cells” value came to 18.4 fold. Moreover, the “RANTES level increase, ng per 10^6 cells” value with activated PBMCs [3] (100 μM HU, per viable cell) is listed as 16.2 fold. For the same compound, the “concentrations (ng/ml) of RANTES, MIP-1α, and MIP-1β in the culture supernatants” value with activated PBMCs [3] (PHA-activated PBMCs, HU for 14 days, dose-dependent) was “increased concentrations”. Also, in the data set on HIV-1 BaL, the “inhibition of HIV-1 BaL replication” value is recorded as under 10%. Further, the inhibition at 100 µM in the data set on HIV-1 BaL (Human immunodeficiency virus 1, BAL, PBMC, 168 h, read-out: inhibition of HIV-1 BaL replication) turned out to be 8%. Moreover, the cell numbers entry with activated PBMCs [4] is listed as “lower”.

Turning to `Cc1c(C)c2c(c(C)c1O)CC[C@@](C)(CCC[C@H](C)CCC[C@H](C)CCCC(C)C)O2` [Vitamin E, alpha-tocopherol], the “levels of β-chemokines” value in the data set with activated PBMCs [5] was “increased levels of β-chemokines”. The “virus production, mean Log p24” value in the data set with HIV-1 (day 14, 9 patients, log of p24 pg/ml, absence of VE 3.58, p=0.016) is 2.06. Further, in the data set with HIV-1 (day 14, untreated 9/10), the “cultures with positive virus isolation” value is 7/10. Besides, in the data set on resting CD4 T cells, the “cell viability and cell proliferation” value was “Neither cell viability nor cell proliferation was affected”.
